Measurements as given in patent US20060287345A1, “Substituted 4-phenyl-4-[1h-imidazol-2-yl]-piperidine derivatives as selective non-peptide delta opiod agonists with antidepressant and anxiolytic activity” (priority 2003, published 2006).
Read-outs that look alike come from different tables or passages of the source.

Columns and labels:
[1] = target: T1, cloned human δ opioid receptor (Homo sapiens, UniProt P41143); assay: Radioligand binding, competitive inhibition of [3H]DPDPE
T1 construct: expressed in transfected cells; host or cells: C6 glioma cells (permanently transfected)

[2] = system: NMRI mice; assay: Mouse tail suspension test; type: in vivo; conditions: s.c., immobility, 30 min after administration
[3] = system: neonatal C57BL/6 mice; assay: Mouse neonatal ultrasonic vocalization test; type: in vivo; conditions: s.c., postnatal day 3, 30 min after injection
Description: (§1) Antidepressant- and anxiolytic like properties of the compounds were examined in mouse tail suspension test (TS), mouse forced swim test (FS) and mouse neonatal ultrasonic vocalization test (USV).
Anxiolytic compounds typically decrease the vocalizations in rat pups separated from their mother (Olivier et al., Eur. J. Pharmacol. 1998, 358, 117) More recently, this test has also been established in mice (Dirks et al., Pharmacol. Biochem. Behav. 2002, 72, 993).
Seventeen days pregnant C57BL/6 mice were obtained from Charles River (Sulzfeld, Germany). They were housed and maintained at a constant temperature of 22° C., under a 12:12 h reversed light/dark cycle (lights off at 6:00 h), with food and water ad libitum. Two times per day, cages were checked for newborn litters. Litter size was 5-8 pups/litter.
Ultrasonic vocalizatiors (USVs) were recorded in a sound attenuating, ventilated chamber at room temperature, detected at 60 kHz (range 50-70 kHz) by a bat recorder in combination with the UltraVox system (Noldus, The Netherlands). No filter was used in order to be able to record pup clicks.
Distress calls of neonatal mice were measured in neonatal C57BL/6 mice at postnatal day 3 during the early dark phase (between 8:00 and 12:00). Pups were weighed (body weight 2-3 g), followed by subcutaneous injection (10 ml/kg), and placed back into the nest. After 30 min, they were separated from the mother and placed into a beaker underneath the bat detector. The number of calls and the duration of calls were recorded over a period of 5 min.
(§2) Data were analyzed using the non-parametric, unadjusted Wilcoxon-Mann-Whitney rank sum test. Each dose was compared with vehicle.

[4] = target: T2, δ opioid receptor (Homo sapiens, UniProt P41143); assay: [35S]GTPγS binding, delta agonism; type: biochemical
T2 construct: expressed in transfected cells; host or cells: C6 glioma cells (permanently transfected)
Description: Second messenger signaling was measured on membrane preparations via stimulation of [^35S]GTPγS binding In this functional assay, agonistic and antagonistic properties of the compounds were investigated.
The assay mixtures contained 10 μg of membrane protein. An additional 10 μg/ml saponire was added to the diluted membranes as a detergent to maximize the [^35S]GTPγS penetration through the membranes.
For testing agonistic activity, 175 μl of diluted membranes was pre-incubated in the buffer described above together with 25 μl of buffer and 25 μl of varying concentrations of the compound in a total volume of 225 μl. For antagonistic activities, the 25 μl of the buffer addition was replaced with the reference agonist for stimulating the basal levels. […]
The amount of bound radioactivity on the filter unit was determined after filter drying and scintillant addition (Nicroscint-O; Packard) by liquid scintillation counting.
Basal [^35S]GTPγS binding was measured in absence of compounds. Stimulation by agonist was calculated as the percentage increase above basal levels. The sigmoid agonist concentration response curves for increases in [^35S]GTPγS binding and antagonist inhibition curves for inhibition of the reference agonist-stimulated [^35S]GTPγS binding were analyzed by non-linear regression using the GraphPad Prism program. […]

[5] = target: cloned human μ opioid receptor (Homo sapiens, UniProt P35372); assay: Radioligand binding, competition with [3H]DAMGO; conditions: Table 8, CHO membranes, read-out: Agonist receptor binding (pIC50) mu (converted)
[6] = target: T2, δ opioid receptor; assay: Signal transport binding, delta antagonism; type: biochemical
[7] = system: C57BL/6 mice; assay: Mouse forced swim test; type: in vivo; conditions: s.c., immobility, treatment 30 min prior to test
Description: as §1
This test has been validated as test for antidepressant-like activity (Borsini and Meli, Psychopharmacology 1988, 94, 147).
Adult male C57BL/6 mice (body weight 22-24 g Charles River, Sulzfeld, Germany) were housed individually in IVC racks and maintained under a 12:12 h light/dark cycle (lights on at 6:00 b), with food and water ad libitum.
A clear glass beaker (10 cm in diameter, 25 cm high) was filled to a depth of 10 cm with water (25° C.). Mice were placed into the water for 6 min. Immobility during the first and the last 3 min were scored automatically using the Videotrack video tracking system (Viewpoint, France), which allows detection of individual pixel movements. Four animals were tested in parallel. Treatment was given 30 min prior to test (s.c., 10 ml/kg). The water was replaced after each animal.
as §2

[8] = Table 7, delta opioid receptor, read-out: pIC50 values for the delta opioid receptor agonist test (converted)

cloned human μ opioid receptor, sequence (P35372 whole entry): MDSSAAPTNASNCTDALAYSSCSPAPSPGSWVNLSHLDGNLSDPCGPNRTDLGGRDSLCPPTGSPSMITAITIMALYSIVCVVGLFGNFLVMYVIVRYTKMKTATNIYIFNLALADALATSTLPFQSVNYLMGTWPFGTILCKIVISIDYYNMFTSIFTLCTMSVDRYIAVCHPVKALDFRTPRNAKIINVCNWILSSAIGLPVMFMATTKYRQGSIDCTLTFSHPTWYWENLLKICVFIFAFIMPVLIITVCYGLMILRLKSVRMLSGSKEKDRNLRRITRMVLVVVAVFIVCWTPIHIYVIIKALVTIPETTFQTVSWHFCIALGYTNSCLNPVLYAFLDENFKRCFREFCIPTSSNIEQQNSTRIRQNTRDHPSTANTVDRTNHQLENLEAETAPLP
T1 sequence (P41143 whole entry): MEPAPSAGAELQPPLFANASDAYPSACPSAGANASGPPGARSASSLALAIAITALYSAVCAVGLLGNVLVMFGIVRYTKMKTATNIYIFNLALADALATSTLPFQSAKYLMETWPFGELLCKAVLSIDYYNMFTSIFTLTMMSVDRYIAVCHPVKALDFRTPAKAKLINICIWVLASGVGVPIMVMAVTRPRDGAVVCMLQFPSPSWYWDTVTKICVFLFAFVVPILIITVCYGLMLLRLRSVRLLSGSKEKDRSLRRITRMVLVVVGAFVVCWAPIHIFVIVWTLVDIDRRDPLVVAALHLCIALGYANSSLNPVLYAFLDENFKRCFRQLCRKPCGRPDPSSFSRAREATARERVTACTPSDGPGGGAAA
T2 sequence (P41143 whole entry): as above

Which IC50 [1, 8] does the source give for O=C(Nc1ccccc1Cl)N1CCC(c2ccccc2)(c2nccn2Cc2ccccc2)CC1 [Compound 65] here?
Its IC50 is 31.6 nM.

Which IC50 [1] does the source give for O=C(C1CC1)N1CCC(c2ccccc2)(c2nccn2Cc2ccccc2)CC1 [Compound 36] here?
Its IC50 is 50.1 nM.

Which IC50 [1] does the source give for CCOC(=O)CNC(=O)N1CCC(c2ccccc2)(c2nccn2Cc2ccccc2)CC1 [Compound 48] here?
The IC50 was 79.4 nM.

What does the source list for CCOC(=O)N1CCC(c2ccccc2)(c2nccn2C(C)c2ccccc2)CC1 (centres unmarked) [Compound 20]?
Tail suspension LAD (Lowest Active Dose tested) [2]: 30 mg/kg s.c.; Ultrasonic vocalization (LAD) (Lowest Active Dose tested) [3]: 30 mg/kg s.c.

Which IC50 [1, 8] does the source give for O=C(O)c1ccccc1NC(=O)N1CCC(c2ccccc2)(c2nccn2Cc2ccccc2)CC1 [Compound 11] here?
Its IC50 is 15.8 nM.

With O=C(NC1CCCCC1)N1CCC(c2ccccc2)(c2nccn2Cc2ccccc2)CC1 [Compound 51] as the compound, how does the IC50 [1] read?
The IC50 was 50.1 nM.

For O=S(=O)(Nc1ccccc1)N1CCC(c2ccccc2)(c2nccn2Cc2ccccc2)CC1 [Compound 98], which IC50 [4] is on record?
Its IC50 is 794 nM.

What about the IC50 [1] of the same compound?
The IC50 was 6.31 nM.

What about the IC50 ([5]; [[…] 1 nM) of the same compound?
The IC50 was 2510 nM.

And the IC50 [6]?
Its IC50 is > 10000 nM.

For O=C(c1cc(C(F)(F)F)cc(C(F)(F)F)c1)N1CCC(c2ccccc2)(c2nccn2Cc2ccccc2)CC1 [Compound 42], which IC50 [1, 8] is on record?
Its IC50 is 63.1 nM.

For c1ccc(Cn2ccnc2C2(c3ccccc3)CCN(c3ncccn3)CC2)cc1 [Compound 103], which IC50 [1] is on record?
The IC50 was 20 nM.

Which melting point does the source give for CCOC(=O)N1CCC(c2ccccc2)(c2nccn2Cc2ccc(C(=O)OC)cc2)CC1 [Compound 3] here?
Its melting point is 149.1 °C.

For COC(=O)c1ccc(Cn2ccnc2C2(c3ccccc3)CCN(C(=O)Nc3ccccc3)CC2)cc1 [Compound 52], which IC50 [1, 8] is on record?
The IC50 was 20 nM.

For O=C(c1csc(-c2cccnc2)n1)N1CCC(c2ccccc2)(c2nccn2Cc2ccccc2)CC1 [Compound 84], which IC50 [1, 8] is on record?
The IC50 was 31.6 nM.

With O=C(Nc1ccccc1Oc1ccccc1)N1CCC(c2ccccc2)(c2nccn2Cc2ccccc2)CC1 [Compound 75] as the compound, how does the IC50 [1] read?
Its IC50 is 39.8 nM.

What does the source list for O=C(c1ccccc1)N1CCC(c2ccccc2)(c2nccn2Cc2ccccc2)CC1 [Compound 2]?
Tail suspension LAD (Lowest Active Dose tested) [2]: 10 mg/kg s.c.; Ultrasonic vocalization (LAD) (Lowest Active Dose tested) [3]: 1 mg/kg s.c.

For COc1ccc(Cl)cc1NC(=O)N1CCC(c2ccccc2)(c2nccn2Cc2ccccc2)CC1 [Compound 78], which IC50 [1, 8] is on record?
The IC50 was 12.6 nM.

For CCOC(=O)N1CCC(c2ccccc2)(c2nccn2Cc2ccc(C(=O)O)cc2)CC1 [Compound 8], which melting point is on record?
The melting point was 251.6 °C.

Which results are given for CCOC(=O)c1ccc(C(C)n2ccnc2C2(c3ccccc3)CCN(C(=O)OCC)CC2)cc1 (centres unmarked) [Compound 19]?
IC50 ([4]; Table 8, [35S]GTPγS binding, membranes, read-out: Signal transport binding (pIC50) delta agonism GTPγS (converted)): 316 nM; IC50 ([1]; Agonist receptor binding (pIC50) delta, Table 8, [3H]DPDPE 2 nM, C6 glioma cell membranes): 6.31 nM; IC50 ([5]; [3H]DAMGO 1 nM): > 1000 nM; IC50 ([6]; Table 8, against reference agonist DPDPE, read-out: Signal transport binding (pIC50) delta antag. (converted)): > 10000 nM

Which IC50 [1, 8] does the source give for CCOC(=O)N1CCC(c2ccccc2)(c2nccn2Cc2ccc3ccccc3c2)CC1 [Compound 22] here?
The IC50 was 50.1 nM.

For c1ccc(Cn2ccnc2C2(c3ccccc3)CCN(c3nccs3)CC2)cc1 [Compound 105], which IC50 [1] is on record?
The IC50 was 12.6 nM.

Which IC50 [1] does the source give for CCCCNC(=O)N1CCC(c2ccccc2)(c2nccn2Cc2ccccc2)CC1 [Compound 50] here?
Its IC50 is 25.1 nM.

With O=C(Nc1ccc2ccccc2c1)N1CCC(c2ccccc2)(c2nccn2Cc2ccccc2)CC1 [Compound 81] as the compound, how does the IC50 [1] read?
The IC50 was 63.1 nM.

Which IC50 [1] does the source give for O=C(Nc1ccccc1Br)N1CCC(c2ccccc2)(c2nccn2Cc2ccccc2)CC1 [Compound 66] here?
The IC50 was 31.6 nM.

For CCN/C(=N/C#N)N1CCC(c2ccccc2)(c2nccn2Cc2ccccc2)CC1 [Compound 4], which IC50 [1] is on record?
Its IC50 is 50.1 nM.

And the melting point?
Its melting point is 84.2 °C.

Which “Tail suspension LAD (Lowest Active Dose tested)” value [2] does the source give for CCOC(=O)N1CCC(c2ccccc2)(c2nccn2Cc2ccccc2)CC1 [Compound 1, ethyl 4-phenyl-4-[1-(phenylmethyl)-1H-imidazol-2-yl]-1-piperidinecarboxylate] here?
Its value is 30 mg/kg s.c.

And the “Ultrasonic vocalization (LAD) (Lowest Active Dose tested)” value [3]?
The value was 10 mg/kg s.c.

And the “Forced swim (LAD) (Lowest Active Dose tested)” value [7]?
The value was 30 mg/kg s.c.

With CC(c1ccccc1)n1ccnc1C1(c2ccccc2)CCN(c2nc3ccccc3o2)CC1 (centres unmarked) [Compound 101] as the compound, how does the IC50 [1] read?
Its IC50 is 15.8 nM.

For O=C(OC1CCCCC1)N1CCC(c2ccccc2)(c2nccn2Cc2ccccc2)CC1 [Compound 28], which IC50 [1] is on record?
The IC50 was 15.8 nM.

Which IC50 [1, 8] does the source give for O=C(Nc1ccccc1CO)N1CCC(c2ccccc2)(c2nccn2Cc2ccccc2)CC1 [Compound 10] here?
The IC50 was 63.1 nM.

With O=C(NCc1ccccc1)N1CCC(c2ccccc2)(c2nccn2Cc2ccccc2)CC1 [Compound 80] as the compound, how does the IC50 [1] read?
Its IC50 is 79.4 nM.

For O=C(Nc1ccccn1)N1CCC(c2ccccc2)(c2nccn2Cc2ccccc2)CC1 [Compound 87], which IC50 [1] is on record?
The IC50 was 50.1 nM.

With CCOc1ccccc1NC(=O)N1CCC(c2ccccc2)(c2nccn2Cc2ccccc2)CC1 [Compound 70] as the compound, how does the IC50 [1] read?
The IC50 was 39.8 nM.

Which IC50 [1] does the source give for CSc1ccccc1NC(=O)N1CCC(c2ccccc2)(c2nccn2Cc2ccccc2)CC1 [Compound 76] here?
Its IC50 is 39.8 nM.

Which IC50 [1] does the source give for CCN(CC)C(=O)c1ccc(Cn2ccnc2C2(c3ccccc3)CCN(c3nc4ccccc4o3)CC2)cc1 [Compound 99] here?
The IC50 was 50.1 nM.

What does the source list for COC(=O)c1ccc(Cn2ccnc2C2(c3ccccc3)CCN(c3nc4ccccc4s3)CC2)cc1 [Compound 102]?
IC50 ([1]; Table 8, [3H]DPDPE 2 nM, C6 glioma cell membranes, read-out: Agonist receptor binding (pIC50) delta (converted)): 3.16 nM; IC50 ([5]; [3H]DAMGO 1 nM): > 1000 nM

Which IC50 [1] does the source give for COC(=O)c1ccccc1NC(=O)N1CCC(c2ccccc2)(c2nccn2Cc2ccccc2)CC1 [Compound 7] here?
The IC50 was 20 nM.

With O=C(Nc1ccc([N+](=O)[O-])cc1)N1CCC(c2ccccc2)(c2nccn2Cc2ccccc2)CC1 [Compound 71] as the compound, how does the IC50 [1] read?
The IC50 was 50.1 nM.
